Assay results reported in ChEMBL document CHEMBL3044981, “Production and optimization of oxytetracycline by a new isolate Streptomyces rimosus using response surface methodology” (2012).
Converted amounts (≈) assume the structure as drawn.

Tests used:
Type in all cases: functional
Escherichia coli = experiment: Antibacterial activity against multidrug-resistant Escherichia coli MTCC 1667 by broth dilution method
Klebsiella pneumoniae = experiment: Antibacterial activity against multidrug-resistant Klebsiella pneumoniae MTCC 2405 by broth dilution method
Pseudomonas aeruginosa = experiment: Antibacterial activity against multidrug-resistant Pseudomonas aeruginosa by broth dilution method
[1] = test system: Staphylococcus epidermidis; experiment: Antibacterial activity against multidrug-resistant Staphylococcus epidermidis MTCC 435 by broth dilution method
Staphylococcus aureus = experiment: Antibacterial activity against multidrug-resistant Staphylococcus aureus MTCC 737 by broth dilution method
Proteus vulgaris = experiment: Antibacterial activity against multidrug-resistant Proteus vulgaris MTCC 1771 by broth dilution method
Salmonella typhi = experiment: Antibacterial activity against multidrug-resistant Salmonella enterica subsp. enterica serovar Typhi MTCC 734 by broth dilution method

Work on `CN(C)[C@@H]1C(O)=C(C(N)=O)C(=O)[C@@]2(O)C(O)=C3C(=O)c4c(O)cccc4[C@@](C)(O)[C@H]3[C@H](O)[C@@H]12` [OXYTETRACYCLINE] yielded an MIC (Escherichia coli) of 6.25 µg/mL (≈ 13.6 µM), an MIC (Klebsiella pneumoniae) of 12.5 µg/mL (≈ 27.1 µM) and an MIC (Pseudomonas aeruginosa) of 12.5 µg/mL (≈ 27.1 µM). For the same compound, the MIC [1] was 3 µg/mL (≈ 6.52 µM), the MIC (Staphylococcus aureus) was 3 µg/mL (≈ 6.52 µM) and the MIC (Proteus vulgaris) was 12.5 µg/mL (≈ 27.1 µM). It also gave an MIC (Salmonella typhi) of 3 µg/mL (≈ 6.52 µM).
